Results taken from PubChem BioAssay AID489035 (Sanford-Burnham Center for Chemical Genomics, 2010).
Active and inactive are the calls of the source. No rule for the calls is given here.

tested on: Jurkat NF-kB reporter, TCR-induced, luciferase luminescence; assay: T-cell NF-kB luciferase reporter inhibition – Jurkat cells, luminescence, dose response (AID 489035)

Structure (SMILES) | IC50
CC1(C)C[C@H]2C=C(C=O)[C@]3(C=O)C[C@]3(C)[C@H]2C1 | 9.17 µM
COc1cccc(/C=N/Nc2ccc(C(=O)O)cc2)c1O | 0.28 µM
O=C(Nc1cccc(C(F)(F)F)c1)c1sc(Cl)nc1C(F)(F)F | 0.59 µM
CCN1C=CC(=C2C(=O)c3ccccc3C2=O)C=C1 | 1.03 µM
C/C=C(\C)C(=O)N[C@@H](c1ccccc1)[C@@H](O)C(=O)O[C@H]1C[C@@]2(O)[C@@H](OC(=O)c3ccccc3)C3[C@](C)(C(=O)[C@H](OC(C)=O)C(=C1C)C2(C)C)[C@@H](O)C[C@H]1OC[C@@]31OC(C)=O (stereo partly specified) | < 0.16 µM
CC(C)c1oc(=O)cc2c1[C@@H](O)[C@H]1OC(=O)[C@@]3(C)C[C@@H](O)[C@@H](O)[C@@]2(C)C13 (stereo partly specified) | 1.08 µM
COc1ccccc1C1=NOC(COc2ccc3c(C)cc(=O)oc3c2)C1 (stereo unspecified) | > 80 µM (inactive)
Cc1ccc(N2C(=O)c3cccc4c(N)ccc(c34)C2=O)c2cccnc12 | < 0.16 µM
CCC(C)(C)c1ccc(OCCCC[n+]2cccc(C)c2C)c(C(C)(C)CC)c1 | 4.76 µM
CCCCCCCCn1c2c(c(=N)c3c1CCC3)CCCC2 | 4.63 µM
CC1CCN(c2c(NCc3ccc(C(=O)N4CCc5ccccc54)cc3)c(=O)c2=O)CC1 | > 80 µM (inactive)
Cc1ccc(C(=O)c2cc([N+](=O)[O-])ccc2N2CCCCC2)cc1C | 37 µM (inactive)
COc1ccccc1C(=O)N(CCC1CCCN1C)c1nc2ccccc2s1 (stereo unspecified) | 45.7 µM (inactive)
CCOc1ccccc1C1CC(=O)Nc2cc(C)c(C)cc21 (stereo unspecified) | > 80 µM (inactive)
CCN(CC)c1ccc(/C=C/c2ccc3ccc(OC)cc3[n+]2CC)cc1 | 51.9 µM (inactive)
Cc1ccc(/C=N/NC(=O)c2c(C)nc3ccc(Br)cn23)cc1 | > 80 µM (inactive)
Cn1nc([N+](=O)[O-])nc1Sc1nnc(-c2ccccc2)o1 | 7.97 µM
Nc1ncn([C@@H]2O[C@H](CO)[C@@H](O)[C@H]2O)c(=O)n1 | 10.8 µM
CC(C)Oc1ccccc1C1CC(=O)Nc2cc3c(cc21)OCO3 (stereo unspecified) | > 80 µM (inactive)
COc1ccc(OC)c2c1C(=O)C(Cl)=C(Cl)C2=O | 1.65 µM
COc1cc(-c2c(-c3cc(OC)c(OC)c(OC)c3)noc2C)ccc1F | 31.6 µM (inactive)
Cc1cc(NC(=O)COC(=O)c2ccc(S(=O)(=O)N3CCCc4ccccc43)cc2)no1 | > 80 µM (inactive)
Cc1cccc(N=Nc2ccc(O)c3ncccc23)c1 | 6.14 µM

Structure (SMILES) | IC50
CC(=O)Nc1ccc(S(=O)(=O)N2CCCc3ccccc32)cc1 | > 80 µM (inactive)
Cc1ccc(O)c(NC(=O)c2cc(-c3ccccc3)on2)c1 | > 80 µM (inactive)
Cn1nc(CC(=O)Nc2ccc(N3CCN(C(=O)OC(C)(C)C)CC3)cc2)c2ccccc2c1=O | > 80 µM (inactive)
COc1ccc(C)c(Cn2c(-c3nonc3N)nc3ccccc32)c1 | > 80 µM (inactive)
CCOC(=O)Nc1nc(-c2ccccc2)c(C(=O)c2ccc(Cl)cc2)s1 | 4.16 µM
COc1ccccc1CNS(=O)(=O)c1ccc(-c2cc(C)no2)cc1 | > 80 µM (inactive)
COc1cccc(-c2cc(=O)c3cc(NC(=O)c4ccc(N(C)C)cc4)ccc3[nH]2)c1 | 6.22 µM
C[C@@H]1C=CC(=O)O[C@@H]1c1ccc(Cl)cc1 | 0.38 µM
COc1ccc(C(=O)Nc2ccc3[nH]c(-c4cccc(OC)c4)cc(=O)c3c2)cc1 | < 0.16 µM
CCOC(=O)Nc1nc(-c2ccccc2)c(C(=O)c2ccccc2)s1 | > 80 µM (inactive)
Cc1ccc(S(=O)(=O)NCc2ccncc2)c(C)c1C | > 80 µM (inactive)
Cc1c(C(=O)OCc2ccccc2)[nH]c2c1C(=O)CC(c1ccco1)C2 (stereo unspecified) | > 80 µM (inactive)
COC(=O)C[C@]1(C(=O)OC)CN(C#N)N(c2ccc(Cl)cc2)C12c1ccccc1-c1ccccc12 | 0.73 µM
COc1ccc([N+](=O)[O-])cc1Nc1c2ccccc2nc2ccccc12 | 50.7 µM (inactive)
Cc1ccc(C(=O)Nc2cccc(C(=O)O)c2)cc1 | 3.03 µM
CCCCCCCCn1c2c(c(=N)c3ccccc31)CCC2 | 3.43 µM
O=C(O)c1ccc(-c2ccc(-c3ccccc3)cc2)s1 | 1.39 µM
Cc1cnc(NC(=O)c2ccc3c(c2)OCCO3)s1 | 1 µM
COc1ccc(C(=O)c2ccc(N(C)C)cc2)c(OC)c1 | > 80 µM (inactive)
COC(=O)Cc1[nH]n(-c2nc3ccccc3s2)c(=O)c1C(C)=Nc1ccc(OC)cc1 | 6.49 µM
CC1(C)Cc2nc3sc4c(=O)n(CC(=O)NCc5ccccc5)cnc4c3cc2CO1 | > 80 µM (inactive)
CC(=O)NC(c1ccc(C(C)C)cc1)c1ccc2cccnc2c1O (stereo unspecified) | 3.06 µM
COc1cc([C@@H]2c3cc4c(cc3[C@@H](OC)[C@H]3COC(=O)[C@H]23)OCO4)cc(OC)c1O | > 80 µM (inactive)
